One compound from PMC7366380, “Discovery of a Potent and Selective Covalent Inhibitor and Activity-Based Probe for the Deubiquitylating Enzyme UCHL1, with Antifibrotic Activity” (Journal of the American Chemical Society, 2020) can be followed below.

Holding throughout (assay): In-cell proteome-wide competitive ABPP, HEK293: other DUBs and proteins
In assay [1] the target is T1, DUBs and other proteins in HEK293 cells (Homo sapiens, UniProt P45974).
T1 sequence (P45974 1-858): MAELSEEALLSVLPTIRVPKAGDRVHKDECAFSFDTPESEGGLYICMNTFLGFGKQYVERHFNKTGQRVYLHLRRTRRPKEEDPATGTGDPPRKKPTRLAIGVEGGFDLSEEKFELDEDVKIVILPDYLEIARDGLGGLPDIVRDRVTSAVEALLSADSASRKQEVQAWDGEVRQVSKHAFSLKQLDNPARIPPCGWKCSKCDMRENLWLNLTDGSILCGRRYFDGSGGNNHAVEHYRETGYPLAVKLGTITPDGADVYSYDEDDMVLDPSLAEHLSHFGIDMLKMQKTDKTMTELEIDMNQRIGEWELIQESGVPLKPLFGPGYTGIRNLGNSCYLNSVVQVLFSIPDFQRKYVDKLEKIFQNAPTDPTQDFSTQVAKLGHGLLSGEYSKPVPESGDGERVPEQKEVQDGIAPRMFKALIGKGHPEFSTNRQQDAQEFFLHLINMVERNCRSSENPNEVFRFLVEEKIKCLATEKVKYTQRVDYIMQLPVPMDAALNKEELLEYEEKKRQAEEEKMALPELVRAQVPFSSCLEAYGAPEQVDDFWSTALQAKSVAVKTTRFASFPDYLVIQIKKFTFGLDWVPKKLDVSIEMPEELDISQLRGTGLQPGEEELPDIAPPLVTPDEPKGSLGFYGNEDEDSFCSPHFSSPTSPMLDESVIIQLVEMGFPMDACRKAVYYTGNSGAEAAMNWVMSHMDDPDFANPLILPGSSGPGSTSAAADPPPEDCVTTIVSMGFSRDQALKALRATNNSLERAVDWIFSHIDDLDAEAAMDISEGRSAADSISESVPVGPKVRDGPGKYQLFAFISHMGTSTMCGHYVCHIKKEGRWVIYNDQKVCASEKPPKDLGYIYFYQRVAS
As to conditions: replicates A-C.

The target in assay [2] is DUBs and other proteins in HEK293 cells (Homo sapiens, UniProt Q96FW1). Particulars: replicates A-C.
Assay [3] deals with DUBs and other proteins in HEK293 cells (Homo sapiens, UniProt Q9UPU5). Particulars: replicates A-C.
Chain of DUBs and other proteins in HEK293 cells (Homo sapiens, UniProt Q9UPU5) (Q9UPU5 whole entry): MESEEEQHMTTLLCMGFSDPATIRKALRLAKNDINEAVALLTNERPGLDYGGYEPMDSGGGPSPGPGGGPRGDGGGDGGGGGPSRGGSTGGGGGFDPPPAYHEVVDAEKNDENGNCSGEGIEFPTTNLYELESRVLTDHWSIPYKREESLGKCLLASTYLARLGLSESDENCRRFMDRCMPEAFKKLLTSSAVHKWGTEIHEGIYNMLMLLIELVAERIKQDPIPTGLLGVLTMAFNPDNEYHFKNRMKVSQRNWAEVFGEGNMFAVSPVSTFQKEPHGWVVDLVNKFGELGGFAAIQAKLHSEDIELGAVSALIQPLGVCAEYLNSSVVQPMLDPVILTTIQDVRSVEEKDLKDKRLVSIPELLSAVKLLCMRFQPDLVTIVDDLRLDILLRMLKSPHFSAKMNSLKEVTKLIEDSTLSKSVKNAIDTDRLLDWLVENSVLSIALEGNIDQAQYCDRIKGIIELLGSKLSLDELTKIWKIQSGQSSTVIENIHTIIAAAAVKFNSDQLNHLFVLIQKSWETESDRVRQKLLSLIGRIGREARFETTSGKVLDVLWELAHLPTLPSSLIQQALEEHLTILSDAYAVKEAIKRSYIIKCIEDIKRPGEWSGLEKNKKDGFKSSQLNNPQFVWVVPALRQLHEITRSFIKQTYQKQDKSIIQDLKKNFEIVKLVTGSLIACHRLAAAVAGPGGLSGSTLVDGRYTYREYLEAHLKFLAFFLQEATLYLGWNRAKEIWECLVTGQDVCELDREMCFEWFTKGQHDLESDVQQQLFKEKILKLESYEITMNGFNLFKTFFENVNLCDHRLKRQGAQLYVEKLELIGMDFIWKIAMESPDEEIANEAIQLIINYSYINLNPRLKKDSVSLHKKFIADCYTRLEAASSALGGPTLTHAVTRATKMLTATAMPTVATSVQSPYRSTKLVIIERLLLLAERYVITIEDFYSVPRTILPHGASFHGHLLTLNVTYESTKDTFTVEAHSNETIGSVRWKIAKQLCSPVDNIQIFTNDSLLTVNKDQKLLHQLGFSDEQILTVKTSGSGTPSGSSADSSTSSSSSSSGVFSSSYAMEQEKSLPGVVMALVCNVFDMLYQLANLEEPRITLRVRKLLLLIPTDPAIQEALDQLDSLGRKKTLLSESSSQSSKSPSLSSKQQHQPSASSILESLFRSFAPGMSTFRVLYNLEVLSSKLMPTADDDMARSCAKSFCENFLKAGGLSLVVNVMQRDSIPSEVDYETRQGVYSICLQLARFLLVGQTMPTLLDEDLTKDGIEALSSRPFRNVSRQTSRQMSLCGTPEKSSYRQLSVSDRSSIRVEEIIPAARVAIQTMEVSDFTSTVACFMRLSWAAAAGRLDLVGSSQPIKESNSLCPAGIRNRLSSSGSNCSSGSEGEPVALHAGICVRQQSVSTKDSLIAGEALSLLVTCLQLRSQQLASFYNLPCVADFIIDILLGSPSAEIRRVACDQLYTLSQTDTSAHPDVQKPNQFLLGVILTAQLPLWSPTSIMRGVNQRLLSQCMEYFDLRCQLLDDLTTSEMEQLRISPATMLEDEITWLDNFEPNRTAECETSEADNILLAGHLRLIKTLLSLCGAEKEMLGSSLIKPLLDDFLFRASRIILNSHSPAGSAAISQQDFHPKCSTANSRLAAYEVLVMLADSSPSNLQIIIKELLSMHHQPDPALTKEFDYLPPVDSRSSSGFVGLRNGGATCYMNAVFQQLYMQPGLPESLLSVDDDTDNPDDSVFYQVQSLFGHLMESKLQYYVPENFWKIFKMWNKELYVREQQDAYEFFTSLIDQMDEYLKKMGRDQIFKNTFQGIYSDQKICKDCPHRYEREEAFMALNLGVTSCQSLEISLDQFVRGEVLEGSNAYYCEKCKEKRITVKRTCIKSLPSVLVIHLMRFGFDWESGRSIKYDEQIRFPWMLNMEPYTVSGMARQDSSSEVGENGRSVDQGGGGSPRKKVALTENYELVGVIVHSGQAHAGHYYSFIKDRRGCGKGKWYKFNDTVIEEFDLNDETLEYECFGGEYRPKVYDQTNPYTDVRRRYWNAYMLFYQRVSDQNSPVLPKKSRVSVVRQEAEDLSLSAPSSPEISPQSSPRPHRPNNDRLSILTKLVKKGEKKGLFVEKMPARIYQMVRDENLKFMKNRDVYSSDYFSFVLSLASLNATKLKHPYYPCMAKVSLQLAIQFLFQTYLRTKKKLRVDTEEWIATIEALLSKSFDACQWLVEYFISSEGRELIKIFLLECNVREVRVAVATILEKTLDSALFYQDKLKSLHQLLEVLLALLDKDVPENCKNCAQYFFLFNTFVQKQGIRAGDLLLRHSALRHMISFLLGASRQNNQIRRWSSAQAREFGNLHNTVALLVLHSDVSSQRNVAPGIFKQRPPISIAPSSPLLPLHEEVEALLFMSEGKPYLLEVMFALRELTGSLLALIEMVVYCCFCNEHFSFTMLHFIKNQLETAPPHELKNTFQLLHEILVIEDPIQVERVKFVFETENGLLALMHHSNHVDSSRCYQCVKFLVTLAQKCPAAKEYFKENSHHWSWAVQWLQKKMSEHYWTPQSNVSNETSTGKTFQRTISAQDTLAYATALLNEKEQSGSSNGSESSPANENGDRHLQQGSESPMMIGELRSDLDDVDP
In assay [4] the target is DUBs and other proteins in HEK293 cells (Homo sapiens, UniProt P51784). Particulars: replicates A-C.
Chain of DUBs and other proteins in HEK293 cells (Homo sapiens, UniProt P51784) (P51784 whole entry): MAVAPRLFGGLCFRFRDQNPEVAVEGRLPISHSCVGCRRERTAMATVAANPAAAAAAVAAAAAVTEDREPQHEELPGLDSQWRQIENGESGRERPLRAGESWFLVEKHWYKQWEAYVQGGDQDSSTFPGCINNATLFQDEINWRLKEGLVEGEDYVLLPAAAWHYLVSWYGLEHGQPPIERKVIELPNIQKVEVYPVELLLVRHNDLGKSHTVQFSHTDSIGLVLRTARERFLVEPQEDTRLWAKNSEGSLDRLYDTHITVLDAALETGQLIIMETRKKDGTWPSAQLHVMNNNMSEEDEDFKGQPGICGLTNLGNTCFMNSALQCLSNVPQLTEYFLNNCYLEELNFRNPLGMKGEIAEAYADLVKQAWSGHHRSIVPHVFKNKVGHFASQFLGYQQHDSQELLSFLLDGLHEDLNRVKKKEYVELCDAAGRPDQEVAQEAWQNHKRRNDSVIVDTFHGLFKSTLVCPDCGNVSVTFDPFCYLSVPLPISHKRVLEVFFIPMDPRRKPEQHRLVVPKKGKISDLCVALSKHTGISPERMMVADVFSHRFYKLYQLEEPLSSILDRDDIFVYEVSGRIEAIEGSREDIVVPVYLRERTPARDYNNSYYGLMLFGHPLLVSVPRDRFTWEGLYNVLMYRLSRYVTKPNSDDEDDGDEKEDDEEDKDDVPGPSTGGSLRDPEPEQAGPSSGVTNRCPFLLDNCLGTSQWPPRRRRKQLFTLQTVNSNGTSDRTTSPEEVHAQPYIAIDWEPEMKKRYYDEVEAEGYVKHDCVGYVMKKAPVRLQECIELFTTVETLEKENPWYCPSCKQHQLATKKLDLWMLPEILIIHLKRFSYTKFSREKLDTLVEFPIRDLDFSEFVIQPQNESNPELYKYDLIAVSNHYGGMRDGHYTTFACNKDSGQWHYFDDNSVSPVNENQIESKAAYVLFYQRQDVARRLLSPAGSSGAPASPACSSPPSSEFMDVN
The target of assay [5] is DUBs and other proteins in HEK293 cells (Homo sapiens, UniProt Q93009). Particulars: replicates A-C.
Chain of DUBs and other proteins in HEK293 cells (Homo sapiens, UniProt Q93009) (Q93009 whole entry): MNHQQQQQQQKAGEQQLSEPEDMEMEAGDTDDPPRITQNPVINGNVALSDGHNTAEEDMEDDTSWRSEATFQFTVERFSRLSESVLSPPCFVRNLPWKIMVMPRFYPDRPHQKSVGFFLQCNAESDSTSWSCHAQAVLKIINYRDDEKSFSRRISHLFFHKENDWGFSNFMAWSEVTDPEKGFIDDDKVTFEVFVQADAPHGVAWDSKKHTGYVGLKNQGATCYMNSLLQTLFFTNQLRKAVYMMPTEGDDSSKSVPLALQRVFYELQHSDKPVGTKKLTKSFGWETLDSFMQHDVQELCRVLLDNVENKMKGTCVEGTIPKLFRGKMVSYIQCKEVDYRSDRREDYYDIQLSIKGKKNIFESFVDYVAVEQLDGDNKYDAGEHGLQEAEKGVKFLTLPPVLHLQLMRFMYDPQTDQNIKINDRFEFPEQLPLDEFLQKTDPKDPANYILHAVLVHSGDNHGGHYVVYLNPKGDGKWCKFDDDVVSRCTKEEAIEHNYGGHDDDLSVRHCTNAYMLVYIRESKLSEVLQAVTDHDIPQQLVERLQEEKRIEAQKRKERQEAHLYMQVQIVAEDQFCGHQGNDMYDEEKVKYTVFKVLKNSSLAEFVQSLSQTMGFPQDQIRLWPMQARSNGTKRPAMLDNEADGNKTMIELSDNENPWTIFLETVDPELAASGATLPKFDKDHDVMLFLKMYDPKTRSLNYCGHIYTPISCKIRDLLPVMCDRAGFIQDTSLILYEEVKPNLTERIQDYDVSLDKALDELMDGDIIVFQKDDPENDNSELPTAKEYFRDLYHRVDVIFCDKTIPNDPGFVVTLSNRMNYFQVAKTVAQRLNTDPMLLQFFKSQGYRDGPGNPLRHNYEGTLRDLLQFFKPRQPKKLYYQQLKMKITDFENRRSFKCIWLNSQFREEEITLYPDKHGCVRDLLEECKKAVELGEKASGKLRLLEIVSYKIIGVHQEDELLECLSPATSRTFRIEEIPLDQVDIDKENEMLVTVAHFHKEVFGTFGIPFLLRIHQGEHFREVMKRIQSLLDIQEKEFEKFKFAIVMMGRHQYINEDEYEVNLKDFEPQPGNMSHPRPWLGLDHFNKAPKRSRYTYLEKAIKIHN
The target of assay [6] is DUBs and other proteins in HEK293 cells (Homo sapiens, UniProt O15372). Particulars: for Log2 reporter intensity values, EIF3H: 20 nM ABP 2 (10 min), no competitor, TMT replicates.
Chain of DUBs and other proteins in HEK293 cells (Homo sapiens, UniProt O15372) (O15372 whole entry): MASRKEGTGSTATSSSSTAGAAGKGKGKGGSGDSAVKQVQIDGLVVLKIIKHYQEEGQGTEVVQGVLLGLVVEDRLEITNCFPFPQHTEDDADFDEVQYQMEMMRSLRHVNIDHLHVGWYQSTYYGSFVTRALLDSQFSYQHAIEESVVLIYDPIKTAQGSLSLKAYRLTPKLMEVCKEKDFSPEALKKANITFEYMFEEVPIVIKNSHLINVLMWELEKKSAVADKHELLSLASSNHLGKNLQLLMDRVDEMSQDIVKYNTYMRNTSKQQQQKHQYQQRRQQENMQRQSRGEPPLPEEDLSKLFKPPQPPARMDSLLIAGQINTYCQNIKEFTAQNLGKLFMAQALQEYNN
Assay [7] deals with T2, DUBs and other proteins in HEK293 cells (Homo sapiens, UniProt Q53GS9).
T2 sequence (Q53GS9 1-565): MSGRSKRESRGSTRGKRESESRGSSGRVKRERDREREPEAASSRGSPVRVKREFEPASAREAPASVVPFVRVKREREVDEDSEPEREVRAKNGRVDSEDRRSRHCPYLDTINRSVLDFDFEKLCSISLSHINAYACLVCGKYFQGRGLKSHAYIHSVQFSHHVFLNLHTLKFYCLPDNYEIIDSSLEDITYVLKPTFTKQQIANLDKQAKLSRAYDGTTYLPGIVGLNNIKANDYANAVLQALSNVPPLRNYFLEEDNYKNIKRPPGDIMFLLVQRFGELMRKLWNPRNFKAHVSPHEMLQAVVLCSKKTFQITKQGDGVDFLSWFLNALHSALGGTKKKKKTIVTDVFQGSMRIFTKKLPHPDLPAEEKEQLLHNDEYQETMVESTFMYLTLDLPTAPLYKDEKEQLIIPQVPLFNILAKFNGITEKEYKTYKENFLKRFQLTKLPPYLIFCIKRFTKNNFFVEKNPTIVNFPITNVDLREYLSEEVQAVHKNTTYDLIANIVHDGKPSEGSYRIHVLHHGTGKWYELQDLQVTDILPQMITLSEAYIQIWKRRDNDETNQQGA
As to conditions: replicates A-C.

The mark [8] stands for this setting: 20 nM ABP 2 alone, DMSO substract (FC).

Each structure is given as a SMILES string. Where “and” joins values, the source holds several entries; their conditions need not be identical. Equal entries are not always repeated.

As for `C#Cc1cnc2[nH]cc(-c3cccc4c3CCN4C(=O)[C@@H]3CCCN3C#N)c2c1` [Compound 2], in assay [1] (setting [8]), the “Log2 reporter intensity values: USP5” value is 0.9172 and 0.9432 and 0.9583. Also, the “Log2 reporter intensity values” in assay [1] (USP5, 20 nM ABP 2, DMSO subtracted) was -0.1247 and -0.08438 and -0.06148 and -0.08313 and -0.05714; in assay [2] (OTUB1, 20 nM ABP 2, DMSO subtracted), 0.1206 and 0.06511 and 0.07959; in assay [3] (USP24, 20 nM ABP 2, DMSO subtracted), 0.1605 and 0.1713 and 0.1729 and 0.1143 and 0.1227 and 0.1239; in assay [4] (USP11, 20 nM ABP 2, DMSO subtracted), -0.1196 and 0.008385 and -0.01996 and -0.07989 and 0.005492 and -0.01408; in assay [5] (USP7, 20 nM ABP 2, DMSO subtracted) it was 0.05058 and 0.01361 and -0.082 and 0.009195; in assay [6] (EIF3H, 20 nM ABP 2, DMSO subtracted, replicates A-C), -0.005103 and -0.006015 and 0.0001635 and -0.003675 and -0.004305 and -3.08E-05. The “Log2 reporter intensity values” in assay [7] (USP39, 20 nM ABP 2, DMSO subtracted) is -0.09621 and -0.06804 and -0.1044 and -0.06512 and -0.04668 and -0.07041. In assay [2] (setting [8]), the “Log2 reporter intensity values: OTUB1” value was 1.065 and 1.087 and 1.08. For the same compound, the “Log2 reporter intensity values: USP24” value in assay [3] (setting [8]) is 1.118 and 1.126 and 1.127. The “Log2 reporter intensity values: USP11” value in assay [4] (setting [8]) is 0.9204 and 1.006 and 0.9863. For the same compound, in assay [5] (setting [8]), the “Log2 reporter intensity values: USP7” value is 0.9183 and 1.036 and 1.009. Moreover, the “Log2 reporter intensity values, EIF3H” value is 0.02449 and 0.02357 and 0.02975 in assay [6] (All values); -0.005103 and -0.006015 and 0.0001635 in assay [6] (DMSO subtracted). The “Log2 reporter intensity values: EIF3H” value in assay [6] (20 nM ABP 2 alone, DMSO substract (FC), replicates A-C) is 0.9965 and 0.9958 and 1. In addition, the “Log2 t-test Difference” value in assay [6] (EIF3H, ABP 2 - 20 nM) is given as -0.003651. Further, the “Log2 reporter intensity values: USP39” value in assay [7] (setting [8]) was 0.9355 and 0.9539 and 0.9302.
